Experimental data taken from patent US5137890A, “4-phenyl tetrahydropyrido(4,3-d)pyrimidines” (Ortho Pharmaceutical Corporation, priority 1990, dated 1992).
Counter-ions that a name gives are not always drawn.

How the values were obtained:
Ethanol-Induced Lesions = assay: Cytoprotection: inhibition of ethanol-induced lesions; assay type: in vivo, male, Charles River rats; conditions: Rattus norvegicus, oral, 1 hour before 50% ethanol
Procedure: Using the procedures of Robert, A. et al., Gastroenterology 77, 433(1979), male, Charles River rats weighing between 140 and 220 g were fasted overnight, but allowed water ad libitum. The rats were, however, deprived of water during the experiment. The rats were weighed and pretreated orally with the example compounds at the doses shown below in Table 1. One hour later, the necrotizing agent, 50% ethanol, was administered orally in a dose volume of 1 ml/animal. After an additional hour, the rats were sacrificed with CO2, the stomachs removed, inflated with distilled water, opened along the greater curvature and laid out on a flat surface. The presence of mucosal bleeding was noted and after wiping off the mucosa, the presence of submucosal bleeding was also noted. The incidence of lesions in the mucosa and the submucosa was statistically analyzed by the method of Chisquares using Yates correction.

80 mg/kg aspirin = assay: Cytoprotection vs. 80 mg/kg aspirin (footnotes of Table 1); assay type: in vivo

Structure (SMILES) | inhibition in vivo at 10 mg/kg (Ethanol-Induced Lesions) | ED50 (Ethanol-Induced Lesions) | also measured
CC(=O)N1CCc2nc(C)nc(-c3ccc(Cl)cc3)c2C1 [Example 1, 6-Acetyl-4-(4-chlorophenyl)-2-methyl-5,6,7,8-tetrahydropyrido[4,3-d]pyrimidine] | 20% | – | –
CC(=O)N1CCc2nc(C)nc(-c3ccc(F)cc3)c2C1 [Example 2, 6-Acetyl-4-(4-fluorophenyl)-2-methyl-5,6,-7,8-tetrahydropyrido[4,3-d]pyrimidine Monohydrochloride Monohydrate] | 100% | – | 8/10 vs. 80 mg/kg aspirin (80 mg/kg aspirin; at 20 mg/kg vs. 80 mg/kg aspirin): 8/10
CCN1CCc2nc(Nc3ccc(C(F)(F)F)cc3)nc(-c3ccc(Cl)cc3)c2C1 [Example 5, 4-(4-chlorophenyl)-6-ethyl-2-(4-trifluromethylphenylamino)-5,6,7,8-tetrahydropyrido[4,3-d]pyrimidine dihydrochloride monohydrate] | 20% | – | –
CCNc1nc2c(c(-c3ccc(F)cc3)n1)CN(C(C)=O)CC2 [Example 7, 6-Acetyl-4-(4-fluorophenyl)-2-ethylamino-5,6,7,8-tetrahydropyrido[4,3-d]pyrimidine] | – | 5 mg/kg | –
C=CCN1CCc2nc(NCC)nc(-c3ccc(Cl)cc3)c2C1 [Example 9, 6-Allyl-4-(4-chlorophenyl)-2-ethylamino-5,6,7,8-tetrahydropyrido[4,3-d]pyrimidine] | 80% | – | –
CCNc1nc2c(c(-c3ccc(Cl)cc3)n1)CN(Cc1ccccc1)CC2 [Example 10, 6-Benzyl-4-(4-chlorophenyl)-2-ethylamino-5,6,7,8-tetrahydropyrido[4,3-d]pyrimidine] | 20% | – | –
CCNc1nc2c(c(-c3ccc(Cl)cc3)n1)CN(CC)CC2 [Example 11, 4-(4-Chlorophenyl)-6-ethyl-2-ethylamino-5,6,7,8-tetrahydropyrido[4,3-d]pyrimidine] | – | 9.5 mg/kg | –
CCNc1nc2c(c(-c3ccc(F)cc3)n1)CNCC2.Cl [Example 12, 2-Ethylamino-4-(4-fluorophenyl)5,6,7,8-tetrahydropyrido[4,3-d]pyrimidine Monohydrochloride] | – | 4.7 mg/kg | 8/10 vs. 80 mg/kg aspirin (80 mg/kg aspirin; at 10 mg/kg vs. 80 mg/kg aspirin): 8/10
CC(=O)N1CCc2nc(N)nc(-c3ccc(Cl)cc3)c2C1 [Example 13, 6-Acetyl-2-amino-4-(4-chlorophenyl)-5,6,7,8-tetrahydropyrido[4,3-d]pyrimidine] | – | ~3 mg/kg | –
CC(=O)N1CCc2nc(N)nc(-c3ccc(F)cc3)c2C1 [Example 14, 6-Acetyl-2-amino-4-(4-fluorophenyl)-5,6,7,8-tetrahydropyrido[4,3-d]pyrimidine Monohydrate] | 80% | – | –
Nc1nc2c(c(-c3ccc(Cl)cc3)n1)CNCC2 [Example 15, 2-Amino-4-(4-chlorophenyl)-5,6,7,8-tetrahydropyrido[4,3-d]pyrimidine Dihydrochloride] | 40% | – | –
Nc1nc2c(c(-c3ccc(F)cc3)n1)CNCC2 [Example 16, 2-amino-4-(4-fluorophenyl)-5,6,7,8-tetrahydropyrido[4,3-d]pyrimidine dihydrochloride hemihydrate] | 80% | – | –
CCN1CCc2nc(N)nc(-c3ccc(Cl)cc3)c2C1.Cl.Cl [Example 17, 2-Amino-4-(4-chlorophenyl)-6-ethyl-5,6,7,8-tetrahydropyrido[4,3-d]pyrimidine Dihydrochloride] | – | 3.2 mg/kg | ED50 (80 mg/kg aspirin): 14.5 mg/kg
CCN1CCc2nc(N)nc(-c3ccc(F)cc3)c2C1 [Example 18, 2-Amino-4-(4-fluorophenyl)-6-ethyl-5,6,7,8-tetrahydropyrido[4,3-d]pyrimidine] | – | 3.7 mg/kg | 8/10 v. 80 mg/kg aspirin (80 mg/kg aspirin; at 40 mg/kg v. 80 mg/kg aspirin): 8/10
CCCN1CCc2nc(N)nc(-c3ccc(Cl)cc3)c2C1 [Example 19, 2-Amino-4-(4-chlorophenyl)-6-propyl-5,6,7,8-tetrahydropyrido[4,3-d]-pyrimidine Dihydrochloride 1/4 Hydrate] | – | 2.7 mg/kg | –
C=CCN1CCc2nc(N)nc(-c3ccc(Cl)cc3)c2C1.Cl.Cl [Example 20, 6-Allyl-2-amino-4-(4-chlorophenyl)-5,6,7,8-tetrahydropyrido[4,3-d]pyrimidine Dihydrochloride] | – | 7.9 mg/kg | –
C=CCN1CCc2nc(N)nc(-c3ccc(F)cc3)c2C1.Cl.Cl [Example 21, 6-Allyl-2-amino-4-(4-fluorophenyl)-5,6,7,8-tetrahydropyrido[4,3-d]pyrimidine Dihydrochloride] | – | 5 mg/kg | –
CN1CCc2nc(N)nc(-c3ccc(Cl)cc3)c2C1 [Example 22, 2-Amino-4-(4-chlorophenyl)-6-methyl-5,6,7,8-tetrahydropyrido[4,3-d]pyrimidine 1/4 Hydrate] | 100% | – | –
CC(=O)N1CCc2nc(N)nc(-c3ccccc3)c2C1.O [Example 23, 6-Acetyl-2-amino-4-phenyl-5,6,7,8-tetrahydropyrido[4,3-d]pyrimidine Monohydrate] | – | 2.3 mg/kg | ED50 (80 mg/kg aspirin): 9.5 mg/kg
CC(=O)N1CCc2nc(C)nc(-c3ccc(C)cc3)c2C1 [Example 24, 6-Acetyl-2-methyl-4-(4-methylphenyl)-5,6,7,8-tetrahydropyrido[4,3-d]pyrimidine Monohydrate] | 40% | – | –
CCCN(CCC)c1nc2c(c(-c3ccc(C)cc3)n1)CN(C(C)=O)CC2 [Example 25, 6-Acetyl-5,6,7,8-tetrahydro-4-(4-methylphenyl) -2-dipropylaminopyrido[4,3-d]-pyrimidine Monohydrate] | 40% | – | –
CCN(CC)CCN1CCc2nc(N)nc(-c3ccc(F)cc3)c2C1 [Example 26, 2-Amino-6-(2-diethylaminoethyl)-4-(4-fluorophenyl)-5,6,7,8-tetrahydropyrido[4,3-d]pyrimidine Trihydrochloride] | 80% | – | –
CN(C)CCCN1CCc2nc(N)nc(-c3ccc(F)cc3)c2C1 [Example 27, Trihydrochloride] | – | ~7 mg/kg | –
